The text below walks through data of patent publication EP0400190A1, “New water-soluble derivatives of nabumetone, a process for their preparation and pharmaceutical compositions which contain them” (MAGIS FARMACEUTICI S.p.A., priority 1989, dated 1990).

In one experiment the test system is mice. Put plainly: Analgesic activity, Writhing test using p-phenylquinone. To be noted: Mus musculus, po, mice treated orally, read-out: ED₅₀. The format is in vivo. As for the experimental part: The analgesic activity was measured by the Writhing test using p-phenylquinone on mice treated orally with the nabumetone enamines in comparison with acetylsalicylic acid, the results showing an ED₅₀ (mg/Kg) for the enamines of about 80 whereas for acetylsalicylic acid the value is about 106.1.
In general terms: An intraperitoneal irritant provokes the stretching counted in writhing tests.

Experiment [1] has as its system edema induced in the rat by formalin. Put plainly: Anti-inflammatory activity on formalin-induced edema. The format is in vivo. To be noted: read-out: ED₅₀. The text has this: The anti-inflammatory activity of these enamines was studied in comparison with acetylsalicylic acid on edema induced in the rat by formalin.

Structures are written as SMILES.

As for `CC(=O)Oc1ccccc1C(=O)O` [acetylsalicylic acid], the ED50 is roughly 106 mg/kg with mice and roughly 313 mg/kg in experiment [1].
